Reference: patent US5661144A, “Cephem derivatives with 3-substituted bis heterocycles” (Meiji Seika Kabushiki Kaisha, priority 1994, dated 1997)
Structures can show the parent of a compound that is named as a salt.

What was measured:
Assay in all cases: Antibacterial activity (MIC), conventional two-fold dilution method
Assay type in all cases: cell-based
S. marcescens No.1 = conditions: Serratia marcescens, 10^6 CFU/ml, Medium N, 35° C., 18 to 20 hours
Method: (§1) The test was carried out in the following manner: 10^6 CFU/ml of a bacterium to be tested was inoculated on a Medium N for disc susceptibility test (manufactured by Nissui Pharmaceutical Co., Ltd.), and cultivated at 35° C. for 18 to 20 hours.

P. auruginosa E-2 = conditions: 10^6 CFU/ml, Medium N, 35° C., 18 to 20 hours
Method: as §1

E. coli NIHJ JC-2 = conditions: Escherichia coli, NIHJJC2, 10^6 CFU/ml, Medium N, 35° C., 18 to 20 hours
Method: as §1

P. vulgaris GN76 = conditions: Proteus vulgaris, 10^6 CFU/ml, Medium N, 35° C., 18 to 20 hours
Method: as §1

S. aureus 209P JC-1 = conditions: Staphylococcus aureus, 10^6 CFU/ml, Medium N, 35° C., 18 to 20 hours
Method: as §1

M. morganii 1510/S-1 = conditions: Morganella morganii, 1510/S1, 10^6 CFU/ml, Medium N, 35° C., 18 to 20 hours
Method: as §1

C. freundii GN346/16 = conditions: Citrobacter freundii, 10^6 CFU/ml, Medium N, 35° C., 18 to 20 hours
Method: as §1

E. faecalis W-73 = conditions: Enterococcus faecalis, W73, 10^6 CFU/ml, Medium N, 35° C., 18 to 20 hours
Method: as §1

S. epidermidis ATCC14990 = conditions: Staphylococcus epidermidis, 10^6 CFU/ml, Medium N, 35° C., 18 to 20 hours
Method: as §1

K. pneumoniae PC1602 = conditions: Klebsiella pneumoniae, 10^6 CFU/ml, Medium N, 35° C., 18 to 20 hours
Method: as §1

R. cloacae G-0008 = conditions: 10^6 CFU/ml, Medium N, 35° C., 18 to 20 hours
Method: as §1

MIC (S. marcescens No.1) [µg/mL] | MIC (P. auruginosa E-2) [µg/mL] | MIC (E. coli NIHJ JC-2) [µg/mL] | MIC (P. vulgaris GN76) [µg/mL] | MIC (S. aureus 209P JC-1) [µg/mL] | MIC (M. morganii 1510/S-1) [µg/mL] | MIC (C. freundii GN346/16) [µg/mL] | MIC (E. faecalis W-73) [µg/mL] | MIC (S. epidermidis ATCC14990) [µg/mL] | MIC (K. pneumoniae PC1602) [µg/mL] | MIC (R. cloacae G-0008) [µg/mL] | Structure (SMILES)
0.05 | 12.5 | 0.05 | 0.1 | 0.2 | < 0.025 | 0.05 | 12.5 | 0.2 | 0.05 | 0.05 | NC(=O)c1csc2c[n+](CC=CC3=C(C(=O)[O-])N4C(=O)C(NC(=O)C(=NOCF)c5nsc(N)n5)C4SC3)cn12 [Example 3, (6R, 7R)-7-[(Z)-2-(5-amino-1,2,4-thiadiazol-3-yl)-2-fluoromethoxyiminoacetamido]-3-[3-(3-carbamoylimidazo [5,1-b]thiazolium-6-yl)-1-propenyl]-3-cephem-4-carboxylate (internal salt)]
0.05 | 25 | 0.05 | 0.1 | 0.2 | < 0.025 | 0.05 | 12.5 | 0.2 | 0.05 | 0.05 | Cc1csc2c[n+](CC=CC3=C(C(=O)[O-])N4C(=O)C(NC(=O)C(=NOCF)c5nsc(N)n5)C4SC3)cn12 [Example 2, (6R, 7R)-7-[(Z)-2-(5-amino-1,2,4-thiadiazol-3-yl)-2-fluoromethoxyiminoacetamido]-3-[3-(3-methylimidazo[5,1-b]thiazolium-6-yl)-1-propenyl]-3-cephem-4-carboxylate (internal salt)]
0.05 | 12.5 | < 0.025 | 0.1 | 0.2 | < 0.025 | 0.05 | 12.5 | 0.1 | 0.05 | 0.05 | Nc1nc(C(=NOCF)C(=O)NC2C(=O)N3C(C(=O)[O-])=C(C=CC[n+]4cc5sccn5c4)CSC23)ns1 [Example 1, (6R, 7R)-7-[(Z)-2-(5-amino-1,2,4-thiadiazol-3-yl)-2-fluoromethoxyiminoacetamido]-3-[3-(imidazo[5,1-b]-thiazolium-6-yl)-1-propenyl]-3-cephem-4-carboxylate(internal salt)]
0.05 | 12.5 | < 0.025 | 0.1 | 0.39 | < 0.025 | < 0.025 | 12.5 | 0.2 | < 0.025 | 0.05 | Nc1nc(C(=NOCF)C(=O)NC2C(=O)N3C(C(=O)[O-])=C(C=CC[n+]4cc5sccn5c4CNC=O)CSC23)ns1 [Example 4, (6R, 7R)-7-[(Z)-2-(5-amino-1,2,4-thiadiazol-3-yl)-2-fluoromethoxyiminoacetamido]-3-[3-(5-formylaminomethylimidazo[5,1-b]thiazolium-6-yl]-1-propenyl]-3-cephem-4-carboxylate (internal salt)]
